Measured values taken from patent US20230149507A1, “TREATMENT OF ALT CANCERS” (INSTITUTO DE MEDICINA MOLECULAR JOÃO LOBO ANTUNES, priority 2019, published 2023).

Experiments:
U2OS and HeLa cells = assay: Indirect IF with anti-BLM and anti-TRF2 antibodies, camptothecin treatment; type: cell-based, human
From the text: HeLa cervical cancer, HT1080 fibrosarcoma, and HEK293 embryonic kidney cells were purchased from ATCC. U2OS osteosarcoma cells were a kind gift from M. Lopes (IMCR, Zurich, Switzerland). HuO9, Saos2 and HOS osteosarcoma cells were a kind gift from B. Fuchs (Balgrist University Hospital, Zurich, Switzerland). WI-38 VA13 in vitro SV40-transformed lung fibroblasts were a kind gift from A. Londoño-Vallejo (CNRS, Paris, France). SKNAS neuroblastoma cells were a kind gift from O. Shakhova (University Hospital Zurich, Switzerland). HeLa, HT1080, HEK293, U2OS, and WI-38 VA13 cells were cultured in high glucose DMEM, GlutaMAX (Thermo Fisher Scientific) supplemented with 10% tetracycline-free fetal bovine serum (Pan BioTech) and 100 U/ml penicillin-streptomycin (Thermo Fisher Scientific). HuO9, Saos2, HOS and SKNAS cells were cultured in high glucose DMEM/F12, GlutaMAX (Thermo Fisher Scientific), supplemented with 10% tetracycline-free fetal bovine serum (Pan BioTech), 100 U/ml penicillin-streptomycin (Thermo Fisher Scientific) and non-essential amino acids (Thermo Fisher Scientific). Mycoplasma contaminations were tested using the VenorGeM Mycoplasma PCR Detection Kit (Minerva Biolabs) according to the manufacturer's instructions. […]

U-2 OS ALT cells = assay: Metaphase-TIFs after FANCM knockdown with siRNA; type: cell-based, human; conditions: compared to the scrambled control; siRNA 30 nM, 72 h
From the text: (§1) (a) Representative images of telomere (green) and γ-H2AX (red) colocalizations on metaphase spreads (meta-TIFs) in U-2 OS cells with or without FANCM depletion (left panel). Meta-TIFs are indicated by white arrows. Scale bars are 5 μm. Quantitation of TIFs (right panel). Scatterplot bars represent the mean±SEM. Out of 3 experiments, n≥81 metaphases scored per treatment, **p<0.005, Mann-Whitney test. (b) Native and denatured TRF analysis of U-2 OS cells with or without FANCM depletion. Colored arrows correspond to telomeric DNA species depicted in panel c. (c) Schematic of migration patterns for indicated telomeric species separated by two-dimensional gel electrophoresis (top panel). Two-dimensional TRF analysis of U-2 OS cells with or without FANCM depletion, hybridized under native and denatured conditions to detect the telomeric C-strand and G-strand (left and right panels). Colored arrows correspond to telomeric DNA species depicted in schematic. (d) Representative dot blot and quantitation of C-circle assays of U-2 OS cells with or without FANCM depletion. C-circle levels were normalized to the mean of scrambled control. Error bars represent the mean±SEM from n=3 experiments, *p<0.05, **p<0.005, Student's t-test. […] Out of 3 experiments, n≥150 cells scored per treatment, *p<0.05, **p<0.005, Mann-Whitney test. […]

U-2 OS cells = assay: Terminal restriction fragment (TRF) analysis after FANCM siRNA; type: cell-based, human; conditions: FANCM depletion, siRNA 30 nM
From the text: as §1

[1] = target: T1, BLM-TOP3A-RMI (BTR) complex (human, UniProt P54132 1-1417; Q13472 1-1001; Q9H9A7 1-625; Q96E14 2-147, limits assumed); assay: competition co-IP: peptide added to HEK-293 Flag-FANCM lysate, Flag IP, TOP3A immunoblot
T1 construct: Endogenous complex in cell lysates (BLM, TOP3A, RMI1, RMI2); In the co-IPs it is read out by TOP3A and/or RMI1 immunoblot
Experimental: For co-IP experiments involved the ER-inducible system, cells were lysed in IP buffer (20 mM Tris-HCl pH 7.5, 100 mM NaCl, 10% (v/v) glycerol, 0.5 mM EDTA, 1 mM DTT) supplemented with 1× mammalian protease inhibitor cocktail (Sigma Aldrich) and 50 U/ml Benzonase (Novagen) for 2 h at 4° C., with or without MM2 peptide variants (Mimotopes). Following lysis, NaCl concentration was increased to 250 mM, then the lysate cleared at 16,000×g for 15 mins. Supernatant was then mixed with 1 μg of α-FANCM (Abcam) or α-ER (Santa Cruz Biotechnology) and 20 μl protein G sepharose (GE Healthcare), or using α-Flag M2 agarose (Sigma Aldrich). Following 3 h of mixing at 4° C., beads were washed 4× with IP buffer, and 1× with 50 mM NH₄(CO₃)₂, 0.5 mM EDTA, then eluted with 500 mM NH₄OH (pH 11.0), 0.5 mM EDTA. Samples were then lyophilized and resuspended in 1×LDS loading buffer (Life Technologies) prior to immunoblotting.
To explore the possibility of specifically targeting ALT cell viability through FANCM, two approaches to disrupt the FANCM-BTR complex were adopted. […] To investigate the effects of FANCM-BTR complex disruption in ALT cells, the MM2 peptide was rendered functionally dependent on tamoxifen by fusion to the C-terminus of the estrogen receptor (MM2-ER) (FIG. 11a). […]

T1 sequence (P54132 whole entry, chain 1 of 4): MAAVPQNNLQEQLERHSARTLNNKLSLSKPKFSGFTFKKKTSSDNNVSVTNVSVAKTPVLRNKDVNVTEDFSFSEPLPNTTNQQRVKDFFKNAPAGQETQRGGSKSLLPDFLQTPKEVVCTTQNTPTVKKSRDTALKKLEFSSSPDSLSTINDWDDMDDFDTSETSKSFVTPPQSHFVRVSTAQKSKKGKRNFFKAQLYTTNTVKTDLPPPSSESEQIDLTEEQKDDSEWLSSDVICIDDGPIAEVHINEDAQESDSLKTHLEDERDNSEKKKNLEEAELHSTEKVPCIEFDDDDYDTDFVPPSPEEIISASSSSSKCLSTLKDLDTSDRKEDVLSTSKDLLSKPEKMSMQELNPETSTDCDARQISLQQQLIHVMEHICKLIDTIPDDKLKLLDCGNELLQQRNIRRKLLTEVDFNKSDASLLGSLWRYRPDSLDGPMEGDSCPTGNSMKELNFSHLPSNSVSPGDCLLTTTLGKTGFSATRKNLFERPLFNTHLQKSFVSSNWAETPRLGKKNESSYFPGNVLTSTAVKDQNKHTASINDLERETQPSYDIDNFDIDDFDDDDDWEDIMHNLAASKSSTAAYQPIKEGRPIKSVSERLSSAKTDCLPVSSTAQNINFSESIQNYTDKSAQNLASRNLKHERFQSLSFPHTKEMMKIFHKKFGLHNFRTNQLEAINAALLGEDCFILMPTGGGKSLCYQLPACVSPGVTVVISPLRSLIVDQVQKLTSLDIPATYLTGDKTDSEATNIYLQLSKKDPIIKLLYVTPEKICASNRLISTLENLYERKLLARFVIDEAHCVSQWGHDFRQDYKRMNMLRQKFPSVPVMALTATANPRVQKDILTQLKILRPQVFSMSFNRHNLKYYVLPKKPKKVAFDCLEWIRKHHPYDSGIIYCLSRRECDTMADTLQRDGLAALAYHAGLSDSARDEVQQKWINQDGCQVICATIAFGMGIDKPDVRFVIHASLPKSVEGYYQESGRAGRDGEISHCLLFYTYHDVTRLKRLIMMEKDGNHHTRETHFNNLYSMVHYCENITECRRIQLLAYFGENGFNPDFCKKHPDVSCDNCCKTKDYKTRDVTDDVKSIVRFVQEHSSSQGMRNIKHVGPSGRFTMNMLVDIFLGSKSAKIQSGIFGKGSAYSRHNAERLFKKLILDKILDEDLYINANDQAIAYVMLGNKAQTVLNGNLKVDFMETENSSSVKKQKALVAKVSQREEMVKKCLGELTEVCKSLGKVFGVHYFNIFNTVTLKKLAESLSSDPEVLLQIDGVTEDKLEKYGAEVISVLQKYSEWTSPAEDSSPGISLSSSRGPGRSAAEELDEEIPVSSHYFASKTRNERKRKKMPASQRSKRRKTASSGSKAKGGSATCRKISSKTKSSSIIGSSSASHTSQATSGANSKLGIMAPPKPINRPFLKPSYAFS
T1 sequence (Q13472 whole entry, chain 2 of 4): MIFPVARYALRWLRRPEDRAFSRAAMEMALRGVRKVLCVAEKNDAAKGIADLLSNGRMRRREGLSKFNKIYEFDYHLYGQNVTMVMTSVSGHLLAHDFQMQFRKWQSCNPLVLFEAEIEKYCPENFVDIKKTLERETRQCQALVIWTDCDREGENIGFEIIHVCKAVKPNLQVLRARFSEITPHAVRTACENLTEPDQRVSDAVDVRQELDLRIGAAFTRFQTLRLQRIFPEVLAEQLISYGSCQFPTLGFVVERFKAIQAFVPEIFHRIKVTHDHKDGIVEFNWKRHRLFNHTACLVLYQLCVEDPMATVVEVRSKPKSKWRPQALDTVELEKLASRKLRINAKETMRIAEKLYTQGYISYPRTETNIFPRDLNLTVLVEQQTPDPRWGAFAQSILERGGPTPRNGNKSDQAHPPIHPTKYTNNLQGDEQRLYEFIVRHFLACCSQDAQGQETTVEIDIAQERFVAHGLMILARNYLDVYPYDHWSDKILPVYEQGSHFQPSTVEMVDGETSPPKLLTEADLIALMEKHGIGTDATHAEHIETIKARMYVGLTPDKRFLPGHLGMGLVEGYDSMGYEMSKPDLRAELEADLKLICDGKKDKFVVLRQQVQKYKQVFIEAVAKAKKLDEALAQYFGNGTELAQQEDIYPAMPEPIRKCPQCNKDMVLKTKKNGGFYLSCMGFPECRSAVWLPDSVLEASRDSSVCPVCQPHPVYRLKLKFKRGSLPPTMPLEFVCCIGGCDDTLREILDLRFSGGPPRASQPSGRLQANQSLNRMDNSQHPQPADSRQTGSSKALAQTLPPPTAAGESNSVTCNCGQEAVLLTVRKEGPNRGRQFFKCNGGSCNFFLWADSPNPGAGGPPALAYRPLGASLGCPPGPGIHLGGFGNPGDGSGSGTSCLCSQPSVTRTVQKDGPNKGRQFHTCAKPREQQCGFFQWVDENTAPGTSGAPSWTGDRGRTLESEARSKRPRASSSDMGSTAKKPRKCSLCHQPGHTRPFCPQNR
T1 sequence (Q9H9A7 whole entry, chain 3 of 4): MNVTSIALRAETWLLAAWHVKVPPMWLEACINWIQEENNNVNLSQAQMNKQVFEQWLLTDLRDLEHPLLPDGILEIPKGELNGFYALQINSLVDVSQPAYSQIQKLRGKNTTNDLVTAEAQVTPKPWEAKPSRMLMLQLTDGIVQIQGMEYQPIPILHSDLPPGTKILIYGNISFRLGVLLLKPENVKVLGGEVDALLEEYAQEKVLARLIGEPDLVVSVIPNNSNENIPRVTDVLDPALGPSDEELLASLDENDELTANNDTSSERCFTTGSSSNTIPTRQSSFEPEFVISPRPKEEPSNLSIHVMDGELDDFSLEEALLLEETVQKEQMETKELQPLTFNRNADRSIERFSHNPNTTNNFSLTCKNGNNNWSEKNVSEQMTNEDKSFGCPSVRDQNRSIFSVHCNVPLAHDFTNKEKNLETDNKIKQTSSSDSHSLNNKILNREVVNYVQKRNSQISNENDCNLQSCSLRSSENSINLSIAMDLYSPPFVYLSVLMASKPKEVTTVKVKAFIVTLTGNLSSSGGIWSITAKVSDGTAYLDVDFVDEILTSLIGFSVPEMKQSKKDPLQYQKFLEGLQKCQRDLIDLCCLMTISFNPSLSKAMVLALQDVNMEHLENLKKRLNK
T1 sequence (Q96E14 2-147 limits assumed, chain 4 of 4): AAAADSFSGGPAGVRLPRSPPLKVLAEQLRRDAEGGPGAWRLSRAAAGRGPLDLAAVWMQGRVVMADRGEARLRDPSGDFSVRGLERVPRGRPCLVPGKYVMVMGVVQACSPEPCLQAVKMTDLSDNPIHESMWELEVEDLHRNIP

Molecule: CC[C@@]1(O)C(=O)OCc2c1cc1n(c2=O)Cc2cc3ccccc3nc2-1 [CPT, Camptothecin]
- BLM TIF frequencies (U2OS and HeLa cells; all samples): marginally affected TIF frequencies
- nuclear (non-telomeric) BLM foci (U2OS and HeLa cells; siCt-transfected U2OS and HeLa cells, 1 μM camptothecin for 3 hours): robust formation of nuclear (non-telomeric) BLM foci

Molecule: siFANCM2: Silencer Select siRNA FANCM2 (s33621) (SEQ ID NO: 13) (GAACAUACAUCAGAUAGCA; listed as RNA, chemistry not given here)
- metaphase-TIFs (meta-TIFs) (U-2 OS ALT cells): significant increase in metaphase-TIFs
- G-rich overhang and low molecular weight ss C-rich telomeric DNA (native TRF) (U-2 OS cells): most marked effects

Molecule: EDIFDCSRDLFSVTADLGACSPDSDDEILEHTSD (also called MM2-FF>AA mutant peptide) [mutant human FANCM MM2 peptide containing the FF>AA mutant]
- binding result [1]: no binding (tested: 1-50 µM)
